Data on 1 compound can be found in PMC12635197, “Discovery of first-in-class inhibitors of the TRF1:TIN2 protein:protein interaction by fragment screening” (Scientific Reports, 2025).

SMILES strings stand for the structures. “Also recorded” adds a separate entry of the source.

Test [1] deals with T1, shelterin complex (Homo sapiens, UniProt P54274).
T1 construct: evicted full-length TRF1 from the shelterin complex; made in house; host or cells: Spodoptera frugiperda (Sf9) insect cells, MultiBac baculovirus
T1 sequence (P54274 1-439): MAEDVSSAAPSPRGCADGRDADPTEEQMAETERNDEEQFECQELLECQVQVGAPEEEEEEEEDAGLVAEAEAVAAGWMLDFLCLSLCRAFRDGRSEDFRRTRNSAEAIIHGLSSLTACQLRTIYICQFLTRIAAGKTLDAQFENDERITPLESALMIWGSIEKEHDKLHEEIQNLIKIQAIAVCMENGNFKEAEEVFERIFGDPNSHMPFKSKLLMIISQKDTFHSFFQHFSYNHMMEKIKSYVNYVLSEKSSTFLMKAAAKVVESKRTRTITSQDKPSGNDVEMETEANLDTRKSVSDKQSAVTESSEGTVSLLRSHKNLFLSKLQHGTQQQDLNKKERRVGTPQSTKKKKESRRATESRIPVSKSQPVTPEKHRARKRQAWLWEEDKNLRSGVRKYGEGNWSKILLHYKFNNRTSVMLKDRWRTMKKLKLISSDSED
As to the kind of experiment: SDS-PAGE/Western blot of crosslinked shelterin after compound incubation. The test is classed as biochemical. The text has this:
We developed a mass-photometry based assay to evaluate the ability of compound 40 to disrupt the TRF1TRFH:TIN2TBM interaction and subsequently evict TRF1 from the full shelterin complex. We expressed recombinant shelterin in insect cells (see Materials and Methods) and purified it via affinity and size exclusion chromatography (SEC). Given the compositional heterogeneity of shelterin, also observed by Zinder et al. 2022[42], we enriched a complex of approximately 700 kDa by serial SEC. The resulting complex was incubated with increasing concentrations of compound 40, and the resulting mass distribution was analysed by mass photometry. […] To confirm whether the evicted entity corresponds to TRF1, we analysed the full shelterin complex by SDS-PAGE, upon co-incubation with increasing amounts of compound 40 or control compound 60 and subsequent mild crosslinking, analogous to the mass photometry experiment. […]
For SDS-PAGE and Western blotting studies, SEC-purified shelterin was diluted to 0.9 µM and incubated with increasing concentrations of compound 40 or 60 (negative control) in the same range as for the MP experiment (from 0 to 300 µM). […] The samples were then analysed by SDS-PAGE, followed by either Coomassie staining or Western blotting. […] Normalised signal intensities from three independent experiments were analysed and plotted using GraphPad Prism (v10.5.0).

For test [2], the target named is T1, shelterin complex. As to the kind of experiment: Mass photometry assay of TRF1 eviction from shelterin. The class given is biochemical. The source says:
We developed a mass-photometry based assay to evaluate the ability of compound 40 to disrupt the TRF1TRFH:TIN2TBM interaction and subsequently evict TRF1 from the full shelterin complex. We expressed recombinant shelterin in insect cells (see Materials and Methods) and purified it via affinity and size exclusion chromatography (SEC). Given the compositional heterogeneity of shelterin, also observed by Zinder et al. 2022[42], we enriched a complex of approximately 700 kDa by serial SEC. The resulting complex was incubated with increasing concentrations of compound 40, and the resulting mass distribution was analysed by mass photometry. Due to disassembly of the complex upon dilution to nanomolar concentrations required for mass photometry, we stabilised it by limited crosslinking using glutaraldehyde prior to dilution to assess potential TRF1 dissociation (Supplementary Fig. 6). With increasing concentrations of compound 40, we observed an increase in a peak around 100 kDa, corresponding in size to the full-length TRF1 dimer (Fig. 6a; Supplementary Fig. 7a, b), consistent with eviction of TRF1 from shelterin. […] Additionally, the mass photometry peak of shelterin shifted and reduced in size by approximately 100 kDa upon the addition of > 250 µM of compound 40, indicating the removal of TRF1 from the complex (Fig. 6a). To confirm whether the evicted entity corresponds to TRF1, we analysed the full shelterin complex by SDS-PAGE, upon co-incubation with increasing amounts of compound 40 or control compound 60 and subsequent mild crosslinking, analogous to the mass photometry experiment. […] To confirm its identity, we performed Western blotting, probing for TRF1, TRF2 and TIN2. This analysis confirmed that the released protein is TRF1 (Fig. 6c, f).
Mass Photometry (MP) experiments were performed using a Refeyn OneMP instrument. […] Data were processed and analysed using Refeyn DiscoverMP software (v2024 R2). Gaussian fits for the mass distribution histograms, mass measurements and percentage abundances (of peak counts to total counts) were determined for each peak observed.

`COc1cc(COc2ccc(S(=O)(=O)[O-])c3ccccc23)cc(OC)c1.[Na+]` [Compound 40]: the “release of TRF1 (species migrating between 100 and 150 kDa)” value on shelterin complex [1] (0.9 µM shelterin, 0-300 µM compound, 0.075% glutaraldehyde) is “dose-dependently liberated”. Besides, the “release of TRF2 and TIN2 from shelterin” value at shelterin complex [1] (Western blot probing for TRF2 and TIN2) is given as “TRF2 was not released, nor was TIN2”. In addition, on shelterin complex [2] (1.25 µM shelterin, 100-300 µM compound, 1 h, glutaraldehyde crosslinking, n = 1), the “concentration at which TRF1 eviction reaches a plateau” value is given as 250 µM. The “eviction of TRF1 from shelterin (100-kDa TRF1 peak)” value at shelterin complex [2] (compound 40 at 100-300 µM, compound 60 at 300 µM) is reported as “expels TRF1 from purified shelterin; also recorded: concentration-dependent increase in eviction of TRF1”. Moreover, on shelterin complex [2] (upon addition of > 250 µM compound), the “reduction in size of shelterin mass photometry peak” value was “around 100 kDa”.
